{"source": "patent US5508311A", "about": "“Aliphatic propargylamines as selective MAO-B inhibitors and as neuroprotective agents” (University of Saskatchewan, priority 1993, dated 1996)", "format_in_all_cases": "in vivo", "key": {"MAO-A": {"molecular_target": "T1, MAO-A (Mus musculus, UniProt Q64133)", "T1 construct": "MAO activities in the mouse brain after; from tissue", "T1 sequence (Q64133 1-526)": "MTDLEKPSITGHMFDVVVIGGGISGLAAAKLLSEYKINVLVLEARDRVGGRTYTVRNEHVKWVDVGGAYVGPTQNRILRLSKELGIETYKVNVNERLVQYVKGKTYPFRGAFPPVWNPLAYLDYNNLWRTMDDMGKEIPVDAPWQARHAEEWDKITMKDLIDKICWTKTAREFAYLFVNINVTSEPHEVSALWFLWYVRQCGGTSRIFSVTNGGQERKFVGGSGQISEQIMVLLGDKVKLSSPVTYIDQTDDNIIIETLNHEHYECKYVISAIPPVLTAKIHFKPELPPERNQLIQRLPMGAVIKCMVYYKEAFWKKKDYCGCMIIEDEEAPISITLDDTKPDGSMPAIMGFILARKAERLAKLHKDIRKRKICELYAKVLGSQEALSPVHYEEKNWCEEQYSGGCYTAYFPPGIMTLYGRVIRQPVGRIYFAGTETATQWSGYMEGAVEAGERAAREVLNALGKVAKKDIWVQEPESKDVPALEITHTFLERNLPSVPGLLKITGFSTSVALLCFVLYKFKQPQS", "conditions": "mouse, in vivo, po, 10 mg/kg", "experimental": "(§1) Table 3 indicates the MAO activities in the mouse brain following oral administration of the aliphatic propargylamines.\n(§2) of each compound. Striata were dissected from the brain two hours after\n(§3) the administration of the drugs. MAOA and MAOB activities were determined"}, "noradrenaline neurons": {"tested_on": "noradrenaline neurons", "assay": "Protection of noradrenaline neurons against DSP-4 induced neurotoxicity in the mouse brain", "conditions": "Experiment I, pretreatment 10 mg/Kg i.p., mean ± S.E.", "experimental": "The analyses of DSP-4-induced neurotoxic effects were conducted in accordance with […] and Jonsson (Eur. J. Pharmacol. 103 (1984), 269-278), hereby incorporated by reference. Mice were pretreated with M-2-PP (10 mg/Kg) and 2-HxMP (10 mg/Kg) or saline as control via i.p. administration and one hour later challenged with a single i.p. dose of DSP-4 (DSP-4: […] One week after treatment noradrenaline content in the putamen of these mice was analyzed. The results which are shown in Table 5 are mean ± S.E. of five animals in each group."}, "MAO-B": {"molecular_target": "T2, MAO-B (Mus musculus, UniProt Q8BW75)", "T2 construct": "MAO activities in the mouse brain after; from tissue", "T2 sequence (Q8BW75 1-520)": "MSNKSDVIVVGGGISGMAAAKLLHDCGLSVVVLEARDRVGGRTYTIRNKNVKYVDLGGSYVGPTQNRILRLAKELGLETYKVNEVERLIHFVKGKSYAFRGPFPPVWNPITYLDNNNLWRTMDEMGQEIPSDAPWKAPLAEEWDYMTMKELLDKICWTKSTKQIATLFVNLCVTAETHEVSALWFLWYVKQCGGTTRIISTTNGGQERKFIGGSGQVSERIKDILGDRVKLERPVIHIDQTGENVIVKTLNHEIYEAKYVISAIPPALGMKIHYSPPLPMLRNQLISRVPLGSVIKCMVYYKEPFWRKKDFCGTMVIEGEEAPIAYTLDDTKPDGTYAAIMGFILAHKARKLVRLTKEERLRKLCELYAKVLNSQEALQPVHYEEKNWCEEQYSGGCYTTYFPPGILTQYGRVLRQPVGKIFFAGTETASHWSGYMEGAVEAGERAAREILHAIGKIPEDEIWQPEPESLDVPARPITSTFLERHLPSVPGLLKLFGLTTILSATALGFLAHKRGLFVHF", "assay": "MAO-B activity in the mouse brain after oral administration (substrate PE)", "conditions": "2 hours", "experimental": "as §1, §2, §3\nStriata were dissected from the brain two\nhours after oral administration of the drugs. MAOB activities were then\ndetermined immediately. The values were estimated from doseresponse"}}}
{"smiles": "C#CCN(C)C(C)CCC.Cl.O=C(O)C(=O)O", "note": "(centres unmarked) [Example M-2-PP, N-(2-Pentyl)-N-methylpropargylamine hydrochloride and oxalate]", "values": [{"measurement": "Relative activity 5-HT", "setting": "MAO-A", "result": "89 ± 15"}, {"measurement": "Noradrenaline in putamen", "setting": "noradrenaline neurons; DSP-4 50 mg/Kg, p < 0.01 vs DSP-4 (DSP-4 alone 33)", "result": "90 ± 0.07", "unit": "%"}, {"measurement": "Noradrenaline in putamen", "setting": "noradrenaline neurons; saline, no DSP-4", "result": "111 ± 0.09", "unit": "%"}, {"measurement": "ED50", "setting": "MAO-B; mouse, oral, average of 5 animals per dose, estimated from dose response curves, read-out: Inhibition of MAO-B activity, dose response (ID50)", "result": 1, "unit": "mg/kg"}, {"measurement": "Relative activity PE", "setting": "MAO-B; oral 10 mg/Kg, PE (1.9 × 10^-5 M), mean ± standard error, saline = 100", "result": "31 ± 4", "unit": "%"}]}
